Measurements from PubChem BioAssay AID1996.
In brackets after ≈: the same amount, converted by molar mass.

Conditions: buffer; pH 7.4; 200.0 µM

| solubility kinetic [µg/mL] | Structure (SMILES) |
| --- | --- |
| > 37.8 | CC1CCN(C(=S)NC(=O)c2ccco2)CC1 |
| 33.3 (≈ 133 µM) | O=[N+]([O-])c1cc(CN2CCCCCC2)ccc1O |
| 22.1 | Cc1ccc(Nc2nc(N)c3ccccc3n2)cc1Cl.Cl |
| > 38.9 | CSc1ncccc1C(=O)Nc1ccc(C)cn1 |
| 46.3 (≈ 148 µM) | N#CCCN(Cc1ccncc1)C(=S)NC1CC2C=CC1C2 (centres undefined) |
| > 42.9 | Cc1nn(C)cc1S(=O)(=O)Nc1cccc(Cl)c1 |
| 51.3 (≈ 146 µM) | COc1cccc(S(=O)(=O)N2CCN(C(=O)c3ccco3)CC2)c1 |
| 10.7 (≈ 36.8 µM) | Cc1ccc(C)c(C(C)NC(=S)NC2CCCCC2)c1 (centres undefined) |
| > 42.5 | COc1ccccc1CNS(=O)(=O)c1cccs1 |
| > 46.6 | O=C(CS(=O)(=O)c1ccccc1)Nc1ccc(Cl)cn1 |
| 0.7 (≈ 2.47 µM) | O=C1OC(c2ccc(Cl)cc2)=C/C1=C/c1cccnc1 |
| 57 (≈ 139 µM) | O=C(Nc1ccc(CN2CCOCC2)cc1)c1cc(Br)ccc1Cl |
| 40.3 (≈ 137 µM) | CN1CCN(c2oc(/C=C/c3ccccc3)nc2C#N)CC1 |
| > 50.9 | COc1ccc(C(=O)NCc2ccc(N3CCN(C)CC3)cc2)cc1 |
| 10.3 (≈ 48.3 µM) | S=C(NC1CC1)SCc1ccco1 |
| > 41 | COc1ccc(CC(=O)OCC(=O)c2ccc[nH]2)cc1 |
| 28.3 (≈ 147 µM) | CC(C)c1ccc2nc(N)sc2c1 |
| 6.9 (≈ 28.6 µM) | O=C(Nc1ccccc1)C(=O)Nc1cccnc1 |
| 27.8 (≈ 67.2 µM) | COc1cc(/C=C/C(=O)OCC(=O)NCCCc2ccccc2)cc(OC)c1OC |
| 1 (≈ 3.62 µM) | Cc1ccccc1NC(=S)NC(=O)C1CCCCC1 |
| 48.5 (≈ 130 µM) | CN(CC1CCCN(CCc2ccc(F)cc2)C1)C(=O)CCC(F)(F)F (centres undefined) |
| 3.7 (≈ 9.82 µM) | COc1cc2nc(NC(=O)c3ccc(Cl)cc3)sc(=O)c2cc1OC |
| < 0.4 | COc1ccc2oc(=N)c(C(=O)Nc3ccc(Cl)cc3)cc2c1 |

| solubility kinetic [µg/mL] | Structure (SMILES) |
| --- | --- |
| > 38.3 | COc1ccccc1C1NC(=O)c2ccccc2O1 (centres undefined) |
| 1.2 (≈ 4.46 µM) | COc1ccc(Cn2c(=O)oc3ccc(C)cc32)cc1 |
| > 33.9 | Cc1ccc(C)c(C(=O)Nc2ccncc2)c1 |
| 1 (≈ 3.03 µM) | Cc1ccc(C)c(CSC2=NCCN2C(=O)c2cccs2)c1 |
| > 36.9 | COc1ccc(Oc2ncccc2[N+](=O)[O-])cc1 |
| 8.1 (≈ 18.3 µM) | CC1(c2ccccc2Br)NC(=O)N(CC(=O)N2CCc3ccccc3C2)C1=O (centres undefined) |
| 29.9 (≈ 99.6 µM) | COc1cccc(CN2CCN(c3ccc(F)cc3)C2=O)c1 |
| 13.2 (≈ 32.9 µM) | COc1ccc(NC(=O)C2CCCN(C(=O)Nc3ccc(F)cc3)C2)cc1OC (centres undefined) |
| > 69.1 | Cc1cc(=O)oc2cc(OCC(=O)OC(C)C(=O)Nc3ccc(S(N)(=O)=O)cc3)ccc12 (centres undefined) |
| 5.6 (≈ 15.5 µM) | O=C(COC(=O)c1cc(Br)ccc1Cl)NC1CCCC1 |
| > 45.3 | O=C(COC(=O)Cc1ccc(Cl)cc1Cl)NC1CC1 |
| > 51.6 | O=C(Cc1ccccc1)NC(C(=O)O)C(O)c1ccc([N+](=O)[O-])cc1 (centres undefined) |
| < 0.4 | O=C(Cn1cc(C(=O)C2CC2)c2ccccc21)Nc1ccccc1Cl |
| > 45.3 | Cc1ccc(OCC(O)CN2CCOCC2)c(C)c1.Cl (centres undefined) |
| < 0.4 | CCCN(CCC)C(=O)c1cc2c(=O)[nH]c3ccc(C)cc3c2s1 |
| 30.4 (≈ 139 µM) | CNC(=O)Cc1csc2ccc(C)cc12 |
| 22.7 (≈ 107 µM) | c1cncc(-c2nc3ccccc3s2)c1 |
| > 51.1 | Cc1oc(-c2cccc(C(F)(F)F)c2)nc1CN1CCC[C@H]1CO |
| 21.4 (≈ 46.8 µM) | CCOc1ccccc1NC(=O)c1cc(=O)[nH]c2ccc(S(=O)(=O)N3CCOCC3)cc12 |
| > 49 | Cc1cc(C)cc(OCC(=O)N2CCN(c3ncccn3)CC2)c1 |
| > 50.8 | O=C(COC(=O)c1ccc(Cl)cc1[N+](=O)[O-])NCc1ccco1 |
| > 55.9 | Cc1cn2c(=O)c(C(=O)N3CCN(c4ccccc4F)CC3)cnc2s1 |
| 44.9 (≈ 140 µM) | CCCC(=O)C1=C(N2CCCC2)CC(C)(C)C(C(=O)OC)C1=O (centres undefined) |

| solubility kinetic [µg/mL] | Structure (SMILES) |
| --- | --- |
| 1.3 (≈ 3.59 µM) | O=C(Nc1ccccc1O)c1ccc2c(c1)C(=O)N(Cc1ccco1)C2=O |
| > 31.2 | CNC(=S)NCCCc1ccccc1 |
| 10.5 (≈ 43.1 µM) | Cc1cccc(NC(=O)C2CC3CCC2C3)c1C (centres undefined) |
| 43.1 (≈ 137 µM) | Cn1c(CCNC(=O)c2ccco2)nc2cc([N+](=O)[O-])ccc21 |
| 40.2 (≈ 92 µM) | Cc1ccc(N(CC(=O)NCC2CCCO2)S(=O)(=O)c2ccc(Cl)cc2)cc1C (centres undefined) |
| 0.4 (≈ 1.27 µM) | CNC(=O)c1c(NC(=O)c2cccc(C)c2)sc2c1CCC2 |
| > 48.4 | COCCCNC(=O)C1CC(=O)N(CCc2ccc(F)cc2)C1 (centres undefined) |
| > 35.7 | CC1CCN(C(=O)c2ccc([N+](=O)[O-])o2)CC1 |
| 29.1 (≈ 116 µM) | CN(C(=O)c1ccoc1)c1ccc2ccccc2c1 |
| > 48.9 | CCOc1cc(/C=C2/C(=O)ON=C2C)cc(Br)c1O |
| > 51.7 | COC(=O)[C@H](Cc1ccccc1)NC(=O)NCCc1ccc(F)cc1 |
| 7.3 (≈ 18.4 µM) | Cc1nc(SCC(=O)NC2CCS(=O)(=O)C2)c2c3c(sc2n1)CCC3 (centres undefined) |
| 1 (≈ 3.24 µM) | CN(C)C(=S)NC(=O)C12CC3(C)CC(C)(CC(C)(C3)C1)C2 |
| 2.5 (≈ 7.48 µM) | O=S(=O)(Nc1ccccc1N1CCCCC1)c1ccc(F)cc1 |
| > 38.1 | COc1ccc(Nc2nccc3c2ncn3C)cc1 |
| < 0.3 | O=C(Nc1ccc(Br)cc1)NC1CCCCCCC1 |
| > 45.3 | CCOc1ccc(NC(=O)CCNC(=O)c2ccco2)cc1 |
| 35.3 (≈ 127 µM) | Cc1cc(SCc2cccc([N+](=O)[O-])c2)nc(=O)[nH]1 |
| > 50 | COc1ccc(CN(C)CC(=O)NC(=O)NC2CCCCC2)cc1 |
| 2.1 (≈ 6.01 µM) | CC(C)CCNC(=O)c1cc2c(s1)-c1ccccc1S(=O)(=O)C2 |
| 0.6 (≈ 1.51 µM) | COc1ccc(/C=C2\SC(=O)N(CC(=O)Nc3cccc(C)c3)C2=O)cc1O |
| 19.4 (≈ 48.8 µM) | COCCn1c(SCC(=O)Nc2ccc3[nH]c(=O)[nH]c3c2)nc2ccccc21 |
| 4.7 (≈ 11.9 µM) | Cc1cnc(NC(=O)c2cc(S(=O)(=O)N(C)C)ccc2N2CCCC2)s1 |

| solubility kinetic [µg/mL] | Structure (SMILES) |
| --- | --- |
| < 0.3 | Cc1cc2ncc(-c3ccccc3)nc2cc1C |
| > 42.7 | NS(=O)(=O)c1cnccc1Oc1cccc(Cl)c1 |
| > 39.6 | Cc1ccnc(SCC(=O)Nc2cc(C)on2)n1 |
| 5 (≈ 15.6 µM) | Cc1cccc(OCC(=O)NCc2cc(C)nc3ccccc23)c1 |
| > 41.2 | Cc1cccnc1NC(=O)CCC(=O)c1cccs1 |
| 31.4 (≈ 112 µM) | Cc1ccc(C(=O)Nc2ccccc2N2CCCC2)cc1 |
| 67.4 (≈ 136 µM) | COc1ccc(Cl)cc1NC(=O)CN(C)C(=O)c1cccc(S(=O)(=O)N2CCN(C)CC2)c1 |
| 26.9 (≈ 91.7 µM) | N#CSC(c1ccccc1)c1nc2ccccc2[nH]c1=O (centres undefined) |
| > 52 | O=C(NCc1ccccc1Cl)C1CCN(C(=O)c2ccco2)CC1 |
| 4.4 (≈ 13.8 µM) | COc1ccc(C(C)NC(=S)NCc2ccc(F)cc2)cc1 (centres undefined) |
| 2 (≈ 6.73 µM) | c1csc(-c2nc(N3CCOCC3)c3ccccc3n2)c1 |
| > 38.9 | CCc1cccc(C)c1N1C(=O)CC(C)(C)CC1=O |
| 35.8 (≈ 103 µM) | Cc1nc(/C(N)=N/OC(=O)c2ccccc2Cl)c(C(F)(F)F)o1 |
| 32.6 (≈ 122 µM) | COc1ccc(C(=O)OCC(=O)NC2CC2)cc1F |
| > 53.2 | O=C(OCc1ccc([N+](=O)[O-])cc1)C1CC(=O)N(Cc2ccccc2)C1 (centres undefined) |
| 2.2 (≈ 6.64 µM) | Cc1ccc(CSCc2ccc(C(=O)NCCC(C)C)o2)cc1 |
| > 54.6 | CC1CNCCN1S(=O)(=O)c1cccc2cnccc12.Cl (centres undefined) |
| 3.9 (≈ 15.4 µM) | CCCCCCN1C=CC=C/C1=C\C=C(C#N)C#N |
| 3.5 (≈ 12.5 µM) | COc1ccc(/C=C(\C#N)C(=O)Nc2ccccn2)cc1 |
| 9.2 (≈ 31.1 µM) | O=C(NCc1ccccn1)Nc1ccc(Cl)cc1Cl |
| 1.8 (≈ 4.22 µM) | COc1ccc(OCC(=O)Nc2ccc(S(=O)(=O)N(C)c3ccccc3)cc2)cc1 |
| > 50.6 | COc1ccc(C(=O)OCC(=O)NC2CCCC2)c(OC)c1OC |
| > 49.9 | CC(C)CCN1CCN(C2CSCCSC2)CC1CCO (centres undefined) |

| solubility kinetic [µg/mL] | Structure (SMILES) |
| --- | --- |
| 41.5 (≈ 123 µM) | O=C(NCc1ccco1)/C(=C/c1ccco1)NC(=O)c1ccccc1 |
| 48.8 (≈ 143 µM) | COC(=O)C1CN(C(=O)COc2ccccc2C)c2ccccc2O1 (centres undefined) |
| < 0.3 | Nc1c2c(nc3sc4c(c13)CCCC4)-c1ccccc1CC2 |
| > 31.5 | Cc1cc2nccc(-c3ccncc3)n2n1 |
| > 48.7 | CC1CN(C(=O)CCNC(=O)c2ccccc2Cl)CC(C)O1 (centres undefined) |
| > 79.4 | CCCCn1c(N)c(N(CCOC)C(=O)CN(C)CC(=O)Nc2ccc(Cl)c(Cl)c2)c(=O)[nH]c1=O |
| 34.9 (≈ 133 µM) | Cc1c(Cl)cccc1NC(=O)Nc1cccnc1 |
| 26.1 (≈ 104 µM) | CCOc1cccc(C(=O)NC2=NCCS2)c1 |
| 32.4 (≈ 120 µM) | CCOC(=O)c1ccc(S(=O)(=O)NC2CC2)cc1 |
| 3.3 (≈ 9.99 µM) | CC1CC(=O)C2=C(C1)Nc1nc3ccccc3n1C2c1cccnc1 (centres undefined) |
| 50.1 (≈ 137 µM) | COc1ccccc1CN1CCN(Cc2nc(-c3ccccc3)no2)CC1 |
| 26.9 (≈ 79.7 µM) | CCCCCNC(=O)c1ccc2c(c1)ncn2-c1ccc(OC)cc1 |
| 16.3 (≈ 52.9 µM) | CC(=O)c1c(-c2ccccc2)c2cc([N+](=O)[O-])ccc2[nH]c1=O |
| > 51.7 | CC(OC(=O)CN1C(=O)c2ccccc2C1=O)C(=O)NC1CCCC1 (centres undefined) |
| > 47 | COc1ccc(C(=O)NCCCNC(=O)c2ccccn2)cc1 |
| 15.5 (≈ 51.4 µM) | CCOC(=O)c1c(C)[nH]c(C(=O)NCc2ccccn2)c1C |
| 33.3 (≈ 104 µM) | COC(=O)c1cc(C(=O)NCC2CCCCC2)cc([N+](=O)[O-])c1 |
| 42.6 (≈ 129 µM) | CCC/C(O)=C1\C(=O)CC(C)(C)CC1=Nc1cccc([N+](=O)[O-])c1 |
| > 43.4 | Cc1cc(C)cc(C(=O)OCC(=O)N2CCCCCC2)c1 |
| 6.8 (≈ 22.8 µM) | O=C(OCC(=O)c1ccc[nH]1)c1ccc(Cl)c(Cl)c1 |
| 66.4 (≈ 141 µM) | COc1cc(NS(=O)(=O)c2cc(C(=O)NCCc3ccccn3)ccc2OC)cc(OC)c1 |
| < 0.2 | Cc1cccn2c(=O)c(C=O)c(Nc3ccccc3)nc12 |
| > 34.1 | Cc1nn(CCCC(=O)O)c(C)c1[N+](=O)[O-] |

| Structure (SMILES) | solubility kinetic [µg/mL] |
| --- | --- |
| Cc1cc(C)nc(N2Cc3ccccc3C2=N)n1 | > 35.7 |
| Cc1onc(-c2c(Cl)cccc2Cl)c1/C(N)=N/OC(=O)N(C)C | > 53.6 |
| OC(CNC1CCCCC1)C(F)(F)F (centres undefined) | > 31.7 |
| O=C(c1cn(Cc2ccccc2F)c2ncccc12)C(F)(F)F | 2.8 (≈ 8.69 µM) |
